In patent publication US12077503B2, “Substituted cyclic amides and their use as herbicides” (FMC CORPORATION, priority 2015, dated 2024):

Experiments:
Assay type in all cases: in vivo
[1] = test system: wheat (Triticum aestivum); assay: Test A postemergence; conditions: Triticum aestivum, post-emergence, 240 h, Postemergence
How it was run: (§1)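 In a loam soil and sand blend, planted seeds got a preemergence directed soil spray, and young plants at the one- to two-leaf stage, 2–10 cm high, got a postemergence application; ~10 d greenhouse hold; injury rated visually, 0 = none, 100 = complete control.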

[2] = test system: ryegrass, Italian (Italian ryegrass, Lolium multiflorum); assay: Test A postemergence; conditions: Lolium multiflorum, post-emergence, 240 h, Postemergence
How it was run: as §1

[3] = test system: giant foxtail (Setaria faberii); assay: Test A postemergence; conditions: Setaria faberi, post-emergence, 240 h, Postemergence
How it was run: as §1

[4] = test system: Galium (catchweed bedstraw, Galium aparine); assay: Test A postemergence; conditions: Galium, post-emergence, 240 h, Postemergence
How it was run: as §1

corn (Zea mays) = assay: Test A postemergence; conditions: Zea mays, post-emergence, 240 h, Postemergence
How it was run: as §1

[5] = test system: pigweed (Amaranthus retroflexus); assay: Test A postemergence; conditions: Amaranthus retroflexus, post-emergence, 240 h, Postemergence
How it was run: as §1

[6] = test system: ragweed (common ragweed, Ambrosia elatior); assay: Test A postemergence; conditions: Ambrosia artemisiifolia, post-emergence, 240 h, Postemergence
How it was run: as §1

[7] = test system: blackgrass (Alopecurus myosuroides); assay: Test A postemergence; conditions: Alopecurus myosuroides, post-emergence, 240 h, Postemergence
How it was run: as §1

Kochia (Kochia scoparia) [8] = assay: Test A postemergence; conditions: Bassia scoparia, post-emergence, 240 h, Postemergence
How it was run: as §1

[9] = test system: ryegrass, Italian (Italian ryegrass, Lolium multiflorum); assay: Test A preemergence; conditions: Lolium multiflorum, pre-emergence, 240 h, Preemergence, 125 g ai/ha; 0 to 100 scale (0 no effect, 100 complete control); read-out: Plant response rating, Ryegrass, Italian
How it was run: as §1

[10] = test system: giant foxtail (Setaria faberii); assay: Test A preemergence; conditions: Setaria faberi, pre-emergence, 240 h
How it was run: as §1

[11] = test system: pigweed (Amaranthus retroflexus); assay: Test A preemergence; conditions: Amaranthus retroflexus, pre-emergence, 240 h
[12] = test system: ragweed (common ragweed, Ambrosia elatior); assay: Test A preemergence; conditions: Ambrosia artemisiifolia, pre-emergence, 240 h
How it was run: as §1

[13] = test system: barnyardgrass (Echinochloa crus-galli); assay: Test A preemergence; conditions: Echinochloa crus-galli, pre-emergence, 240 h
How it was run: as §1

Kochia (Kochia scoparia) [14] = assay: Test A preemergence; conditions: Bassia scoparia, pre-emergence, 240 h
How it was run: as §1

Structure (SMILES): CSc1ccccc1NC(=O)[C@H]1C(=O)N(C)C[C@@H]1c1ccc(F)c(C)c1 [Compound 1312]
- plant injury at 125 g/ha ([1]; 125 g ai/ha, visual rating about 10 d after treatment, read-out: Wheat plant response rating (0 to 100 scale)): 30%
- plant injury at 500 g/ha ([1]; 500 g ai/ha, visual injury, 0 to 100 scale (0 no effect, 100 complete control), approx. 10 d, read-out: Plant response rating, Wheat): 80%
- pest or weed control at 125 g/ha ([2]; 125 g ai/ha, visual rating about 10 d after treatment, read-out: Ryegrass, Italian plant response rating (0 to 100 scale)): 30%
- pest or weed control at 500 g/ha ([2]; 500 g ai/ha, visual injury, 0 to 100 scale (0 no effect, 100 complete control), approx. 10 d, read-out: Plant response rating, Ryegrass, Italian): 50%
- pest or weed control at 125 g/ha ([3]; 125 g ai/ha, visual rating about 10 d after treatment, read-out: Foxtail, Giant plant response rating (0 to 100 scale)): 90%
- pest or weed control at 500 g/ha ([3]; 500 g ai/ha, visual injury, 0 to 100 scale (0 no effect, 100 complete control), approx. 10 d, read-out: Plant response rating, Foxtail, Giant): 90%
- pest or weed control at 125 g/ha ([4]; 125 g ai/ha, visual rating about 10 d after treatment, read-out: Galium plant response rating (0 to 100 scale)): 50%
- pest or weed control at 500 g/ha ([4]; 500 g ai/ha, visual injury, 0 to 100 scale (0 no effect, 100 complete control), approx. 10 d, read-out: Plant response rating, Galium): 60%
- plant injury at 125 g/ha (corn (Zea mays); 125 g ai/ha, visual rating about 10 d after treatment, read-out: Corn plant response rating (0 to 100 scale)): 40%
- Corn plant response rating (crop injury, 0 = no effect, 100 = complete kill) at 500 g/ha (corn (Zea mays); 500 g ai/ha, visual injury, 0 to 100 scale (0 no effect, 100 complete control), approx. 10 d): 90%
- pest or weed control at 125 g/ha ([5]; 125 g ai/ha, visual rating about 10 d after treatment, read-out: Pigweed plant response rating (0 to 100 scale)): 0%
- pest or weed control at 500 g/ha ([5]; 500 g ai/ha, visual injury, 0 to 100 scale (0 no effect, 100 complete control), approx. 10 d, read-out: Plant response rating, Pigweed): 40%
- pest or weed control at 125 g/ha ([6]; 125 g ai/ha, visual rating about 10 d after treatment, read-out: Ragweed plant response rating (0 to 100 scale)): 0%
- pest or weed control at 500 g/ha ([6]; 500 g ai/ha, visual injury, 0 to 100 scale (0 no effect, 100 complete control), approx. 10 d, read-out: Plant response rating, Ragweed): 70%
- pest or weed control at 125 g/ha ([7]; 125 g ai/ha, visual rating about 10 d after treatment, read-out: Blackgrass plant response rating (0 to 100 scale)): 50%
- pest or weed control at 500 g/ha ([7]; 500 g ai/ha, visual injury, 0 to 100 scale (0 no effect, 100 complete control), approx. 10 d, read-out: Plant response rating, Blackgrass): 70%
- pest or weed control at 125 g/ha (Kochia (Kochia scoparia) [8]; 125 g ai/ha, visual rating about 10 d after treatment, read-out: Kochia plant response rating (0 to 100 scale)): 50%
- pest or weed control at 500 g/ha (Kochia (Kochia scoparia) [8]; 500 g ai/ha, visual injury, 0 to 100 scale (0 no effect, 100 complete control), approx. 10 d, read-out: Plant response rating, Kochia): 70%
- pest or weed control at 125 g/ha [9]: 60%
- pest or weed control at 500 g/ha ([10]; 500 g ai/ha, preemergence, 0 to 100 scale where 0 is no effect and 100 is complete control, read-out: Foxtail, Giant plant response rating): 100%
- pest or weed control at 125 g/ha ([10]; Preemergence, 125 g ai/ha, 0 to 100 scale (0 no effect, 100 complete control), read-out: Plant response rating, Foxtail, Giant): 90%
- pest or weed control at 500 g/ha ([11]; 500 g ai/ha, preemergence, 0 to 100 scale where 0 is no effect and 100 is complete control, read-out: Pigweed plant response rating): 60%
- pest or weed control at 125 g/ha ([11]; Preemergence, 125 g ai/ha, 0 to 100 scale (0 no effect, 100 complete control), read-out: Plant response rating, Pigweed): 20%
- pest or weed control at 500 g/ha ([12]; 500 g ai/ha, preemergence, 0 to 100 scale where 0 is no effect and 100 is complete control, read-out: Ragweed plant response rating): 100%
- pest or weed control at 125 g/ha ([12]; Preemergence, 125 g ai/ha, 0 to 100 scale (0 no effect, 100 complete control), read-out: Plant response rating, Ragweed): 70%
- pest or weed control at 500 g/ha ([13]; 500 g ai/ha, preemergence, 0 to 100 scale where 0 is no effect and 100 is complete control, read-out: Barnyardgrass plant response rating): 100%
- pest or weed control at 125 g/ha ([13]; Preemergence, 125 g ai/ha, 0 to 100 scale (0 no effect, 100 complete control), read-out: Plant response rating, Barnyardgrass): 90%
- pest or weed control at 500 g/ha (Kochia (Kochia scoparia) [14]; 500 g ai/ha, preemergence, 0 to 100 scale where 0 is no effect and 100 is complete control, read-out: Kochia plant response rating): 80%
- pest or weed control at 125 g/ha (Kochia (Kochia scoparia) [14]; Preemergence, 125 g ai/ha, 0 to 100 scale (0 no effect, 100 complete control), read-out: Plant response rating, Kochia): 50%
